In patent US8119696B2, “Treatment of superficial and cutaneous mycoses with a pure form of 1,7-bis(4-hydroxy-3-methoxyphenyl)-3,5-heptanedione” (priority 2007, dated 2012):
Entries after “also recorded” stand apart in the source; their conditions may differ.

What was measured:
Type in all cases: cell-based
[1] = test system: Candida albicans NCIM 3471 (yeast); test: Activity against Candida species: colony counts over 28 days
[2] = test system: Fusarium oxysporum (mycotoxin producing fungus); test: Activity against Fusarium oxysporum: counts over 28 days; details: inoculation level 1 × 10^7 CFU/g
Malassezia furfur = test: Antifungal efficacy, agar dilution method (Sabourauds Dextrose Agar with an overlay of coconut oil); details: for Growth of test organism (Negative/Growth): DMSO solvent, trials MF1-MF3
Trichophyton rubrum = test: Anti-dermatophytic activity, agar dilution method (Sabouraud's dextrose agar); details: for Inhibition of growth at all tested concentrations: concentrations 0.15%, 0.31%, 0.625%, 1.25%, 2.50% and 5.0%; for Growth of test organism (Negative/Growth): DMSO solvent, SDA, trials TR1-TR3
Procedure: (§1) The anti-dermatophyte efficacy testing for greater than 99% pure form of 1,7-Bis(4-hydroxy-3-methoxyphenyl)-3,5-heptanedione (coded TP) in comparison to the corresponding 95% pure form (coded SW) was done by the agar dilution method. The medium used was Sabouraud's dextrose agar (SDA). Doubling concentration ranges from about 0.15% to about 5% of TP and […] was prepared in 5 ml Dimethylsulfoxide and added to 95 ml of SDA to form a total volume of 100 ml of the medium. The test organisms Trichophyton rubrum, Microsporum gypseum and Epidermophyton floccosum encoded as TR, MG and EF were inoculated in biosafety level 2 standards into the media comprising test compounds in the specified concentration ranges. Triplicate experiments were set up for each of the three fungi for each concentration of the test compounds to ensure reproducibility of results. DMSO and SDA controls were also included in triplicates for the test.
(§2) The test results are represented as Table I (FIG. 1, FIG. 2 and FIG. 3). The table may be read as follows. For example, TPTR1 represents growth of Trichophyton rubrum in greater than 99% pure form of 1,7-Bis (4-hydroxy-3-methoxyphenyl)-3,5-heptanedione in the first test. Similarly duplicate and triplicate testing are represented as TPTR2 and TPTR3.

Epidermophyton floccosum = test: as above; details: for Inhibition of growth at all tested concentrations: concentrations 0.15%, 0.31%, 0.625%, 1.25%, 2.50% and 5.0%; for Growth of test organism (Negative/Growth): DMSO solvent, SDA, trials EF1-EF3
Procedure: as §1, §2

Microsporum gypseum = test: as above; details: for Inhibition of growth at all tested concentrations: concentrations 0.15%, 0.31%, 0.625%, 1.25%, 2.50% and 5.0%; for Growth of test organism (Negative/Growth): DMSO solvent, SDA, trials MG1-MG3
Procedure: as §1, §2

[3] = test interval 7 days, listed as 1,7-bis(4-hydroxy-3-methoxyphenyl)-3,5-heptanedione (>99% purity)
[4] = test interval 14 days, listed as 1,7-bis(4-hydroxy-3-methoxyphenyl)-3,5-heptanedione (>99% purity)
[5] = test interval 21 days, listed as 1,7-bis(4-hydroxy-3-methoxyphenyl)-3,5-heptanedione (>99% purity)
[6] = test interval 28 days, listed as 1,7-bis(4-hydroxy-3-methoxyphenyl)-3,5-heptanedione (>99% purity)
[7] = test interval 28 days, listed as greater than 99% pure form of 1,7-bis(4-hydroxy-3-methoxyphenyl)-3,5-heptanedion
[8] = listed as greater than 99% pure form of 1,7-Bis(4-hydroxy-3-methoxyphenyl)-3,5-heptanedion
[9] = test interval 7 days, listed as 1,7-bis(4-hydroxy-3-methoxyphenyl)-3,5-heptanedione (about 95% purity)
[10] = test interval 14 days, listed as 1,7-bis(4-hydroxy-3-methoxyphenyl)-3,5-heptanedione (about 95% purity)
[11] = test interval 21 days, listed as 1,7-bis(4-hydroxy-3-methoxyphenyl)-3,5-heptanedione (about 95% purity)
[12] = test interval 28 days, listed as 1,7-bis(4-hydroxy-3-methoxyphenyl)-3,5-heptanedione (about 95% purity)
[13] = final concentration 0.15%, listed as 95% pure form of 1,7-Bis(4-hydroxy-3-methoxyphenyl)-3,5-heptanedione

## COc1cc(CCC(=O)CC(=O)CCc2ccc(O)c(OC)c2)ccc1O [TP, 1,7-Bis(4-hydroxy-3-methoxyphenyl)-3,5-heptanedione]
[1]; test interval 0 days, listed as 1,7-bis(4-hydroxy-3-methoxyphenyl)-3,5-heptanedione (>99% purity)
  Concentration of organism: 14.6 × 10^5 cfu/ml
[1]; [3]
  Concentration of organism: 72 × 10^5 cfu/ml
  Log Reduction: 0.5
  Percent Reduction: 50.6%
[1]; [4]
  Concentration of organism: 20 × 10^8 cfu/ml
  Log Reduction: 2.8
  Percent Reduction: 99.8%
[1]; [5]
  Concentration of organism: 75 × 10^2 cfu/ml
  Log Reduction: 3.4
  Percent Reduction: 99.94%
[1]; [6]
  Concentration of organism: <130 cfu/ml
  Log Reduction: 5.3
  Percent Reduction: 99.99%
[1]; [7]
  Concentration of organism: less than 100 cfu/ml
  Percent Reduction: 99.99%
[2]
  Day 0 count: 1 × 10^7 CFU/g
  Day 7 count: <10 CFU/g
  Day 14 count: <10 CFU/g
  Day 28 Count: <10 CFU/g
Malassezia furfur; 0.15% to 5%
  Activity against Malassezia furfur at all tested concentration, in contrast to the 95% pure form: enhanced activity
Malassezia furfur; final concentration 0.15%
  Growth of test organism (Negative/Growth): Negative
Malassezia furfur; final concentration 0.31%
  Growth of test organism (Negative/Growth): Negative
Malassezia furfur; final concentration 0.625%
  Growth of test organism (Negative/Growth): Negative
Malassezia furfur; final concentration 1.25%
  Growth of test organism (Negative/Growth): Negative
Malassezia furfur; final concentration 2.5%
  Growth of test organism (Negative/Growth): Negative
Malassezia furfur; final concentration 5%
  Growth of test organism (Negative/Growth): Negative
Trichophyton rubrum
  Inhibition of growth at all tested concentrations: inhibits the growth
Trichophyton rubrum; [8]
  Inhibition of growth at all tested concentrations: completely inhibiting the growth
Trichophyton rubrum; final concentration 0.15%
  Growth of test organism (Negative/Growth): Negative
Trichophyton rubrum; final concentration 0.31%
  Growth of test organism (Negative/Growth): Negative
Trichophyton rubrum; final concentration 0.625%
  Growth of test organism (Negative/Growth): Negative
Trichophyton rubrum; final concentration 1.25%
  Growth of test organism (Negative/Growth): Negative
Trichophyton rubrum; final concentration 2.5%
  Growth of test organism (Negative/Growth): Negative
Trichophyton rubrum; final concentration 5%
  Growth of test organism (Negative/Growth): Negative
Epidermophyton floccosum
  Inhibition of growth at all tested concentrations: inhibits the growth
Epidermophyton floccosum; [8]
  Inhibition of growth at all tested concentrations: completely inhibiting the growth
Epidermophyton floccosum; final concentration 0.15%
  Growth of test organism (Negative/Growth): Negative
Epidermophyton floccosum; final concentration 0.31%
  Growth of test organism (Negative/Growth): Negative
Epidermophyton floccosum; final concentration 0.625%
  Growth of test organism (Negative/Growth): Negative
Epidermophyton floccosum; final concentration 1.25%
  Growth of test organism (Negative/Growth): Negative
Epidermophyton floccosum; final concentration 2.5%
  Growth of test organism (Negative/Growth): Negative
Epidermophyton floccosum; final concentration 5%
  Growth of test organism (Negative/Growth): Negative
Microsporum gypseum
  Inhibition of growth at all tested concentrations: inhibits the growth
Microsporum gypseum; [8]
  Inhibition of growth at all tested concentrations: completely inhibiting the growth
Microsporum gypseum; final concentration 0.15%
  Growth of test organism (Negative/Growth): Negative
Microsporum gypseum; final concentration 0.31%
  Growth of test organism (Negative/Growth): Negative
Microsporum gypseum; final concentration 0.625%
  Growth of test organism (Negative/Growth): Negative
Microsporum gypseum; final concentration 1.25%
  Growth of test organism (Negative/Growth): Negative
Microsporum gypseum; final concentration 2.5%
  Growth of test organism (Negative/Growth): Negative
Microsporum gypseum; final concentration 5%
  Growth of test organism (Negative/Growth): Negative

## COc1cc(CCC(=O)CC(=O)CCc2ccc(O)c(OC)c2)ccc1O [SW, 1,7-Bis(4-hydroxy-3-methoxyphenyl)-3,5-heptanedione]
[1]; test interval 0 days, listed as 1,7-bis(4-hydroxy-3-methoxyphenyl)-3,5-heptanedione (about 95% purity)
  Concentration of organism: 25 × 10^5 cfu/ml
[1]; [9]
  Concentration of organism: 19.7 × 10^5 cfu/ml
  Log Reduction: 0.2
  Percent Reduction: 21.2%
[1]; [10]
  Concentration of organism: 16 × 10^4 cfu/ml
  Log Reduction: 2.3
  Percent Reduction: 99.3%
[1]; [11]
  Concentration of organism: 53 × 10^5 cfu/ml
  Log Reduction: 0.7
  Percent Reduction: 78.6%
[1]; [12]
  Concentration of organism: 31.5 × 10^5 cfu/ml
  Log Reduction: 0.8
  Percent Reduction: 87.4%
Malassezia furfur; agar dilution
  Concentration that inhibits the growth of the fungus: ≥ 1.25%
Malassezia furfur; final concentration 0.15%
  Growth of test organism (Negative/Growth): Growth
Malassezia furfur; final concentration 0.31%
  Growth of test organism (Negative/Growth): Growth
Malassezia furfur; final concentration 0.625%
  Growth of test organism (Negative/Growth): Growth
Malassezia furfur; final concentration 1.25%
  Growth of test organism (Negative/Growth): Negative; also recorded: Growth
Malassezia furfur; final concentration 2.5%
  Growth of test organism (Negative/Growth): Negative
Malassezia furfur; final concentration 5%
  Growth of test organism (Negative/Growth): Negative
Trichophyton rubrum; final concentration 0.15%
  Growth of test organism (Negative/Growth): tolerated by the fungi; also recorded: Growth
Trichophyton rubrum; [13]
  Growth of test organism (Negative/Growth): grow
Trichophyton rubrum; final concentration 0.31%
  Growth of test organism (Negative/Growth): Negative
Trichophyton rubrum; final concentration 0.625%
  Growth of test organism (Negative/Growth): Negative
Trichophyton rubrum; final concentration 1.25%
  Growth of test organism (Negative/Growth): Negative
Trichophyton rubrum; final concentration 2.5%
  Growth of test organism (Negative/Growth): Negative
Trichophyton rubrum; final concentration 5%
  Growth of test organism (Negative/Growth): Negative
Epidermophyton floccosum; final concentration 0.15%
  Growth of test organism (Negative/Growth): able to grow; also recorded: Growth
Epidermophyton floccosum; [13]
  Growth of test organism (Negative/Growth): grow
Epidermophyton floccosum; final concentration 0.31%
  Growth of test organism (Negative/Growth): able to grow; also recorded: Growth
Epidermophyton floccosum; final concentration 0.31%, listed as 95% pure form of 1,7-Bis(4-hydroxy-3-methoxyphenyl)-3,5-heptanedione
  Growth of test organism (Negative/Growth): tolerant
Epidermophyton floccosum; final concentration 0.625%
  Growth of test organism (Negative/Growth): Negative
Epidermophyton floccosum; final concentration 1.25%
  Growth of test organism (Negative/Growth): Negative
Epidermophyton floccosum; final concentration 2.5%
  Growth of test organism (Negative/Growth): Negative
Epidermophyton floccosum; final concentration 5%
  Growth of test organism (Negative/Growth): Negative
Microsporum gypseum; final concentration 0.15%
  Growth of test organism (Negative/Growth): tolerated by the fungi; also recorded: Growth
Microsporum gypseum; [13]
  Growth of test organism (Negative/Growth): grow
Microsporum gypseum; final concentration 0.31%
  Growth of test organism (Negative/Growth): Negative
Microsporum gypseum; final concentration 0.625%
  Growth of test organism (Negative/Growth): Negative
Microsporum gypseum; final concentration 1.25%
  Growth of test organism (Negative/Growth): Negative
Microsporum gypseum; final concentration 2.5%
  Growth of test organism (Negative/Growth): Negative
Microsporum gypseum; final concentration 5%
  Growth of test organism (Negative/Growth): Negative
